# Target: T1, Recombinant human cathepsin A (Homo sapiens, UniProt P10619)
# T1 construct: Recombinant human cathepsin A (residues 29-480, with a C-terminal 10-His tag); 10-His (C); purchased R&D Systems 1049-SE
# T1 sequence (P10619 29-326 limits assumed): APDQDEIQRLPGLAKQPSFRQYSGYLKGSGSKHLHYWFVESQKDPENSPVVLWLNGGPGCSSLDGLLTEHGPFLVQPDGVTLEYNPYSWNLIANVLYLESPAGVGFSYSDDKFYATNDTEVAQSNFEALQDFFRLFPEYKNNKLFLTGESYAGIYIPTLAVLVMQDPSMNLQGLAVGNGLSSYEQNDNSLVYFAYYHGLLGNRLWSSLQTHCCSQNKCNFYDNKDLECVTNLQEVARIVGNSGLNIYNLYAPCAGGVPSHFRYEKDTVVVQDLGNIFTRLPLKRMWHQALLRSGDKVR
# T1 sequence (P10619 327-480 limits assumed): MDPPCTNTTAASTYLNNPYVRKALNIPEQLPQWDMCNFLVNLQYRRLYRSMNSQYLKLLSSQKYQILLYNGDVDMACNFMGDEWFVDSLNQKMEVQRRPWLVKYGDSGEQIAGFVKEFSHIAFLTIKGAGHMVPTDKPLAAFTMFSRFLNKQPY
# Test: Cathepsin A inhibitory activity
# Format: biochemical
# Details: activated recombinant human cathepsin A, Bodipy FL-labeled bradykinin substrate, pH 5.5, microfluidic capillary electrophoresis
# Protocol: Recombinant human cathepsin A (residues 29-480, with a C-terminal 10-His tag; R&D Systems, # 1049-SE) was proteolytically activated with recombinant human cathepsin L (R&D Systems, # 952-CY). Briefly, cathepsin A was incubated at 10 μg/ml with cathepsin L at 1 μg/ml in activation buffer (25 mM 2-(morpholin-4-yl)-ethanesulfonic acid (MES), pH 6.0, containing 5 mM dithiothreitol (DTT)) for 15 min at 37° C. Cathepsin L activity was then stopped by the addition of the cysteine protease inhibitor E-64 (N-(trans-epoxysuccinyl)-L-leucine-4-guanidinobutylamide; Sigma-Aldrich, # E3132; dissolved in activation buffer/DMSO) to a final concentration of 10 μM.
# The activated cathepsin A was diluted in assay buffer (25 mM MES, pH 5.5, containing 5 mM DTT) and mixed with the test compound (dissolved in assay buffer containing (v/v) 3% DMSO) or, in the control experiments, with the vehicle in a multiple assay plate. […]
# Uncleaved substrate and product were then separated by a microfluidic capillary electrophoresis on a LabChip® 3000 Drug Discovery System (12-Sipper-Chip; Caliper Life Sciences) and quantified by determination of the respective peak areas. Substrate turnover was calculated by dividing product peak area by the sum of substrate and product peak areas, and the enzyme activity and the inhibitory effect of the test compound thus quantified. […]
smiles,measurement,value
"CCC[C@H](NC(=O)[C@@H]1[C@H]2CCC[C@H]2CN1C(=O)[C@@H](NC(=O)[C@@H](NC(=O)c1cnccn1)C1CCCCC1)C(C)(C)C)C(=O)C(=O)NC1CC1 [Telaprevir, (1 S,3aR,6aS)-2-[(2S)-2-[[(2S)-2-Cyclohexyl-2-(pyrazine-2-carbonylamino)acetyl]amino]-3,3-dimethylbutanoyl]-N-[(3S)-1-(cyclopropylamino)-1,2-dioxohexan-3-yl]-3,3a,4,5,6,6a-hexahydro-1H-cyclopenta[c]pyrrole-1-carboxamide]",IC50,100 nM
